ChEMBL document CHEMBL1144385, “Solid-phase synthesis and antibacterial evaluations of N-demethylvancomycin derivatives” (2005)
Values after ≈ are worked out from the molar mass of the structure shown.

Legend:
Assay type in all cases: functional
Staphylococcus aureus [1] = test: Minimum inhibitory concentration against growth of Methicillin resistant […] aureus
Staphylococcus aureus [2] = test: Minimum inhibitory concentration against growth of […] aureus (ATCC 29213)
Enterococcus faecalis [3] = test: Minimum inhibitory concentration against growth of Enterococcus faecalis (ATCC 29212)
Enterococcus faecalis [4] = test: Minimum inhibitory concentration against growth of vancomycin-resistant Enterococcus faecalis (ATCC 51299)

CC(C)C[C@@H](Nc1ccc(F)cc1)C(=O)N[C@H]1C(=O)N[C@@H](CC(N)=O)C(=O)N[C@H]2C(=O)N[C@H]3C(=O)N[C@H](C(=O)N[C@H](C(=O)NCC(=O)O)c4cc(O)cc(O)c4-c4cc3ccc4O)[C@H](O)c3ccc(c(Cl)c3)Oc3cc2cc(c3O[C@@H]2O[C@@H](CO)[C@@H](O)[C@H](O)[C@@H]2O[C@H]2C[C@](C)(Nc3ccc(F)cc3)[C@H](O)[C@H](C)O2)Oc2ccc(cc2Cl)[C@H]1O
MIC (Staphylococcus aureus [1]): > 10 µg/mL
MIC (Staphylococcus aureus [2]): > 10 µg/mL
MIC (Enterococcus faecalis [3]): > 10 µg/mL
MIC (Enterococcus faecalis [4]): > 10 µg/mL

CC(C)C[C@@H](N)C(=O)N[C@H]1C(=O)N[C@@H](CC(N)=O)C(=O)N[C@H]2C(=O)N[C@H]3C(=O)N[C@H](C(=O)N[C@H](C(=O)NCC(=O)O)c4cc(O)cc(O)c4-c4cc3ccc4O)[C@H](O)c3ccc(c(Cl)c3)Oc3cc2cc(c3O[C@@H]2O[C@@H](CO)[C@@H](O)[C@H](O)[C@@H]2O[C@H]2C[C@](C)(Nc3ccc(-c4ccccc4)cc3)[C@H](O)[C@H](C)O2)Oc2ccc(cc2Cl)[C@H]1O
MIC (Staphylococcus aureus [1]): 5 µg/mL (≈ 3.04 µM)
MIC (Staphylococcus aureus [2]): 5 µg/mL (≈ 3.04 µM)
MIC (Enterococcus faecalis [3]): 5 µg/mL (≈ 3.04 µM)
MIC (Enterococcus faecalis [4]): > 10 µg/mL

CCCN(CCC)[C@H](CC(C)C)C(=O)N[C@H]1C(=O)N[C@@H](CC(N)=O)C(=O)N[C@H]2C(=O)N[C@H]3C(=O)N[C@H](C(=O)N[C@H](C(=O)NCC(=O)O)c4cc(O)cc(O)c4-c4cc3ccc4O)[C@H](O)c3ccc(c(Cl)c3)Oc3cc2cc(c3O[C@@H]2O[C@@H](CO)[C@@H](O)[C@H](O)[C@@H]2O[C@H]2C[C@](C)(Nc3ccc(OC)cc3)[C@H](O)[C@H](C)O2)Oc2ccc(cc2Cl)[C@H]1O
MIC (Staphylococcus aureus [1]): 10 µg/mL (≈ 5.94 µM)
MIC (Staphylococcus aureus [2]): > 10 µg/mL
MIC (Enterococcus faecalis [3]): > 10 µg/mL
MIC (Enterococcus faecalis [4]): > 10 µg/mL

CCC(CC)N[C@H](CC(C)C)C(=O)N[C@H]1C(=O)N[C@@H](CC(N)=O)C(=O)N[C@H]2C(=O)N[C@H]3C(=O)N[C@H](C(=O)N[C@H](C(=O)NCC(=O)O)c4cc(O)cc(O)c4-c4cc3ccc4O)[C@H](O)c3ccc(c(Cl)c3)Oc3cc2cc(c3O[C@@H]2O[C@@H](CO)[C@@H](O)[C@H](O)[C@@H]2O[C@H]2C[C@](C)(N)[C@H](O)[C@H](C)O2)Oc2ccc(cc2Cl)[C@H]1O
MIC (Staphylococcus aureus [1]): 10 µg/mL (≈ 6.4 µM)
MIC (Staphylococcus aureus [2]): 10 µg/mL (≈ 6.4 µM)
MIC (Enterococcus faecalis [3]): > 10 µg/mL
MIC (Enterococcus faecalis [4]): > 10 µg/mL

CN[C@H](CC(C)C)C(=O)N[C@H]1C(=O)N[C@@H](CC(N)=O)C(=O)N[C@H]2C(=O)N[C@H]3C(=O)N[C@H](C(=O)N[C@H](C(=O)NCC(=O)O)c4cc(O)cc(O)c4-c4cc3ccc4O)[C@H](O)c3ccc(c(Cl)c3)Oc3cc2cc(c3O[C@@H]2O[C@@H](CO)[C@@H](O)[C@H](O)[C@@H]2O[C@H]2C[C@](C)(NC(=O)OCC3c4ccccc4-c4ccccc43)[C@H](O)[C@H](C)O2)Oc2ccc(cc2Cl)[C@H]1O
MIC (Staphylococcus aureus [1]): 5 µg/mL (≈ 2.89 µM)
MIC (Staphylococcus aureus [2]): > 10 µg/mL
MIC (Enterococcus faecalis [3]): 10 µg/mL (≈ 5.79 µM)
MIC (Enterococcus faecalis [4]): 5 µg/mL (≈ 2.89 µM)

CCC(CC)N[C@H](CC(C)C)C(=O)N[C@H]1C(=O)N[C@@H](CC(N)=O)C(=O)N[C@H]2C(=O)N[C@H]3C(=O)N[C@H](C(=O)N[C@H](C(=O)NCC(=O)O)c4cc(O)cc(O)c4-c4cc3ccc4O)[C@H](O)c3ccc(c(Cl)c3)Oc3cc2cc(c3O[C@@H]2O[C@@H](CO)[C@@H](O)[C@H](O)[C@@H]2OC2C[C@](C)(NC(CC)CC)[C@H](O)[C@H](C)O2)Oc2ccc(cc2Cl)[C@H]1O (single isomer, unassigned)
MIC (Staphylococcus aureus [1]): > 10 µg/mL
MIC (Staphylococcus aureus [2]): > 10 µg/mL
MIC (Enterococcus faecalis [3]): > 10 µg/mL
MIC (Enterococcus faecalis [4]): > 10 µg/mL

C/C=C/CN[C@H](CC(C)C)C(=O)N[C@H]1C(=O)N[C@@H](CC(N)=O)C(=O)N[C@H]2C(=O)N[C@H]3C(=O)N[C@H](C(=O)N[C@H](C(=O)NCC(=O)O)c4cc(O)cc(O)c4-c4cc3ccc4O)[C@H](O)c3ccc(c(Cl)c3)Oc3cc2cc(c3O[C@@H]2O[C@@H](CO)[C@@H](O)[C@H](O)[C@@H]2O[C@H]2C[C@](C)(Nc3ccc(OC)cc3)[C@H](O)[C@H](C)O2)Oc2ccc(cc2Cl)[C@H]1O
MIC (Staphylococcus aureus [1]): 10 µg/mL (≈ 6.05 µM)
MIC (Staphylococcus aureus [2]): 10 µg/mL (≈ 6.05 µM)
MIC (Enterococcus faecalis [3]): > 10 µg/mL
MIC (Enterococcus faecalis [4]): > 10 µg/mL

CCCN(CCC)[C@H](CC(C)C)C(=O)N[C@H]1C(=O)N[C@@H](CC(N)=O)C(=O)N[C@H]2C(=O)N[C@H]3C(=O)N[C@H](C(=O)N[C@H](C(=O)NCC(=O)O)c4cc(O)cc(O)c4-c4cc3ccc4O)[C@H](O)c3ccc(c(Cl)c3)Oc3cc2cc(c3O[C@@H]2O[C@@H](CO)[C@@H](O)[C@H](O)[C@@H]2O[C@H]2C[C@](C)(Nc3ccc(-c4ccccc4)cc3)[C@H](O)[C@H](C)O2)Oc2ccc(cc2Cl)[C@H]1O
MIC (Staphylococcus aureus [1]): 5 µg/mL (≈ 2.89 µM)
MIC (Staphylococcus aureus [2]): 5 µg/mL (≈ 2.89 µM)
MIC (Enterococcus faecalis [3]): > 10 µg/mL
MIC (Enterococcus faecalis [4]): > 10 µg/mL

CCC(CC)N[C@H](CC(C)C)C(=O)N[C@H]1C(=O)N[C@@H](CC(N)=O)C(=O)N[C@H]2C(=O)N[C@H]3C(=O)N[C@H](C(=O)N[C@H](C(=O)NCC(=O)O)c4cc(O)cc(O)c4-c4cc3ccc4O)[C@H](O)c3ccc(c(Cl)c3)Oc3cc2cc(c3O[C@@H]2O[C@@H](CO)[C@@H](O)[C@H](O)[C@@H]2O[C@H]2C[C@](C)(Nc3ccc(Cl)cc3)[C@H](O)[C@H](C)O2)Oc2ccc(cc2Cl)[C@H]1O
MIC (Staphylococcus aureus [1]): > 10 µg/mL
MIC (Staphylococcus aureus [2]): > 10 µg/mL
MIC (Enterococcus faecalis [3]): > 10 µg/mL
MIC (Enterococcus faecalis [4]): > 10 µg/mL

CC(C)C[C@H](C(=O)N[C@H]1C(=O)N[C@@H](CC(N)=O)C(=O)N[C@H]2C(=O)N[C@H]3C(=O)N[C@H](C(=O)N[C@H](C(=O)NCC(=O)O)c4cc(O)cc(O)c4-c4cc3ccc4O)[C@H](O)c3ccc(c(Cl)c3)Oc3cc2cc(c3O[C@@H]2O[C@@H](CO)[C@@H](O)[C@H](O)[C@@H]2O[C@H]2C[C@](C)(NC(=O)OCC3c4ccccc4-c4ccccc43)[C@H](O)[C@H](C)O2)Oc2ccc(cc2Cl)[C@H]1O)N(C)C(=O)OCC1c2ccccc2-c2ccccc21
MIC (Staphylococcus aureus [1]): 5 µg/mL (≈ 2.56 µM)
MIC (Staphylococcus aureus [2]): > 10 µg/mL
MIC (Enterococcus faecalis [3]): 10 µg/mL (≈ 5.13 µM)
MIC (Enterococcus faecalis [4]): 5 µg/mL (≈ 2.56 µM)
